{"source": "patent US9145434B2", "about": "(Boehringer Ingelheim International GmbH, priority 2012, dated 2015)", "assay_type_in_all_cases": "physicochemical", "key": {"[1]": {"assay": "physical and chemical stability of the crystalline complex", "conditions": "under various environmental conditions and during the production of a medicament"}, "[2]": {"assay": "mechanical stability of the crystals (grinding)", "conditions": "allows grinding of the crystals"}, "[3]": {"assay": "tendency to absorb moisture"}}, "data": [{"smiles": "N#Cc1ccc([C@@H]2O[C@H](CO)[C@@H](O)[C@H](O)[C@H]2O)cc1Cc1ccc(C2CC2)cc1.O=C(O)[C@@H]1CCCN1", "note": "[crystalline complex]", "values": [{"measurement": "physical and chemical stability", "setting": "[1]", "value": "high physical and chemical stability"}, {"measurement": "mechanical stability", "setting": "[2]", "value": "high mechanical stability"}, {"measurement": "tendency to absorb moisture", "setting": "[3]", "value": "does not show a high tendency to absorb moisture"}]}]}
